Measured values published in patent US12115178B2, “Acylated active agents and methods of their use for the treatment of autoimmune disorders” (Flagship Pioneering Innovations V, Inc., priority 2018, dated 2024).

Tests used:
Assay type in all cases: in vitro ADME
[1] = Assay 2. Stability in Simulated Intestinal Fluid (SIF); conditions: SIF pH 6.7 with pancreatin, 1 μM, 37° C.
How it was run: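 Compounds at 1 µM (from 1 mM DMSO stock) were incubated at 37 °C with agitation in simulated intestinal fluid: FaSSIF in pH 6.7 phosphate buffer with pancreatin. Aliquots taken from T0 onward were quenched with acetonitrile and analyzed by LC/MS for degradation rate.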

[2] = Assay 3. In vitro Colonic Material Stability Assay; conditions: colonic material slurry, anaerobic, 1 or 10 μM
Procedure: Assay 3. In vitro Colonic Material Stability Assay. This assay was used to assess the stability of an acylated active agent in a large intestine. All experiments were performed in an anaerobic chamber containing 90% nitrogen, 5% hydrogen and 5% carbon dioxide. Colonic material was resuspended as a slurry (15% w/v final concentration) in pre-reduced, anaerobically sterilized dilution blanks (Anaerobe Systems AS-908). The colonic material was then inoculated into 96 well plates containing YCFAC media (Anaerobe Systems AS-680) or other suitable media (6.7 μL slurry into 1 mL total media). Compounds or groups of compounds were added to each individual well to reach a final analyte concentration of 1 or 10 μM, and the material was mixed by pipetting. Sample was removed after set timepoints (0, 120, 240, 480, 1440, 2880 minutes after initiation of the assay), quenched with acetonitrile containing internal standard, and analyzed by LC/MS.

[3] = Assay 1. Stability in Simulated Gastric Fluid (SGF); conditions: SGF pH 1.6 with pepsin, 1 μM, 37° C.
How it was run: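 Compound at 1 μM final (from 1 mM DMSO stock) incubated at 37° C in SGF: NaCl medium at pH 1.6 with FaSSIF powder and 0.1 mg/mL pepsin, prepared fresh. Aliquots taken at T0 and regular intervals, quenched with equal volume acetonitrile; LC/MS gives degradation rate.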

CC(=O)O[C@H]1O[C@H](C(=O)O)[C@@H](OC(C)=O)[C@H](OC(C)=O)[C@H]1OC(C)=O [Compound 163, (2S,3S,4S,5R,6R)-3,4,5,6-tetraacetoxytetrahydro-2H-pyran-2-carboxylic acid]
Assay 2 (SIF) (% @ Remaining 4 hours) [1]: C (>75% of the tested compound remaining) | Assay 3 (% Remaining at 24 h) [2]: B (25-75% of the tested compound remaining) | Assay 1 (SGF) (% Remaining @ 1 hour) [3]: C (>75% of the tested compound remaining)

CCCC(=O)O[C@@H]1[C@H](OC(=O)CCC)[C@H](C)OC(Oc2ccccc2C(=O)O)[C@H]1OC(=O)CCC (stereo partly drawn) [Compound 29, 2-(((3S,4R,5R,6S)-3,4,5-tris(butyryloxy)-6-methyltetrahydro-2H-pyran-2-yl)oxy)benzoic acid]
Assay 3 (% Remaining at 24 h) [2]: C (>75% of the tested compound remaining) | Assay 1 (SGF) (% Remaining @ 1 hour) [3]: C (>75% of the tested compound remaining)

CCC(=O)O[C@H]1[C@H](OC(=O)CC)[C@@H](OC(=O)CCc2c[nH]c3ccccc23)O[C@@H](C)[C@H]1OC(=O)CC [Compound 77, (2R,3S,4R,5R,6S)-6-methyl-3,4,5-tris(propanoyloxy)oxan-2-yl 3-(1H-indol-3-yl)propanoate]
Assay 2 (SIF) (% @ Remaining 4 hours) [1]: C (>75% of the tested compound remaining) | Assay 3 (% Remaining at 24 h) [2]: A (<25% of the tested compound remaining) | Assay 1 (SGF) (% Remaining @ 1 hour) [3]: C (>75% of the tested compound remaining)

CCCC(=O)O[C@@H]1[C@@H](OC(=O)CCC)[C@@H](Oc2ccc(N)cc2C(=O)O)OC[C@H]1OC(=O)CCC [Compound 18, 5-amino-2-[(2R,3R,4S,5R)-3,4,5-tri(butanoyloxy)tetrahydropyran-2-yl]oxy-benzoic acid]
Assay 3 (% Remaining at 24 h) [2]: C (>75% of the tested compound remaining) | Assay 1 (SGF) (% Remaining @ 1 hour) [3]: C (>75% of the tested compound remaining)

CCC(=O)O[C@@H]1[C@@H](OC(=O)CC)[C@H](C)O[C@H](OC(=O)/C=C/c2c[nH]c3ccccc23)[C@@H]1OC(=O)CC [Compound 107, (2R,3R,4R,5S,6S)-6-methyl-3,4,5-tris(propanoyloxy)oxan-2-yl (2E)-3-(1H-indol-3-yl)prop-2-enoate]
Assay 2 (SIF) (% @ Remaining 4 hours) [1]: A (<25% of the tested compound remaining) | Assay 3 (% Remaining at 24 h) [2]: B (25-75% of the tested compound remaining) | Assay 1 (SGF) (% Remaining @ 1 hour) [3]: B (25-75% of the tested compound remaining)

CCC(=O)O[C@@H]1[C@@H](OC(=O)CC)[C@H](OC(=O)/C=C/c2c[nH]c3ccccc23)OC[C@@H]1OC(=O)CC [Compound 100, (2S,3R,4S,5S)-3,4,5-tris(propanoyloxy)oxan-2-yl (2E)-3-(1H-indol-3-yl)prop-2-enoate]
Assay 3 (% Remaining at 24 h) [2]: A (<25% of the tested compound remaining) | Assay 1 (SGF) (% Remaining @ 1 hour) [3]: B (25-75% of the tested compound remaining)

CCCC(=O)O[C@H]1[C@H](OC(=O)CCC)[C@@H](OC(=O)CCc2c[nH]c3ccccc23)O[C@@H](C)[C@H]1OC(=O)CCC [Compound 87, (2R,3S,4R,5R,6S)-4,5-bis(butanoyloxy)-2-{[3-(1H-indol-3-yl)propanoyl]oxy}-6-methyloxan-3-yl butanoate]
Assay 3 (% Remaining at 24 h) [2]: A (<25% of the tested compound remaining) | Assay 1 (SGF) (% Remaining @ 1 hour) [3]: B (25-75% of the tested compound remaining)

O=C(CCc1c[nH]c2ccccc12)Oc1ccc2c(c1)oc(=O)c1cc(OC(=O)CCc3c[nH]c4ccccc34)c(OC(=O)CCc3c[nH]c4ccccc34)cc12 [Compound 208, 8,9-bis({[3-(1H-indol-3-yl)propanoyl]oxy})-6-oxo-6H-benzo[c]chromen-3-yl 3-(1H-indol-3-yl)propanoate]
Assay 2 (SIF) (% @ Remaining 4 hours) [1]: B (25-75% of the tested compound remaining) | Assay 3 (% Remaining at 24 h) [2]: B (25-75% of the tested compound remaining)

CCC(=O)OC[C@H]1O[C@H](OC(=O)/C=C/c2c[nH]c3ccccc23)[C@H](OC(=O)CC)[C@@H](OC(=O)CC)[C@@H]1OC(=O)CC [Compound 99, (2R,3R,4S,5R,6R)-3,4,5-tris(propanoyloxy)-6-[(propanoyloxy)methyl]oxan-2-yl (2E)-3-(1H-indol-3-yl)prop-2-enoate]
Assay 3 (% Remaining at 24 h) [2]: A (<25% of the tested compound remaining) | Assay 1 (SGF) (% Remaining @ 1 hour) [3]: B (25-75% of the tested compound remaining)

CCCC(=O)O[C@@H]1[C@@H](OC(=O)CCC)[C@H](Oc2ccc(N)cc2C(=O)O)OC[C@H]1O [Compound 32, 5-amino-2-(((2S,3R,4S,5R)-3,4-bis(butyryloxy)-5-hydroxytetrahydro-2H-pyran-2-yl)oxy)benzoic acid]
Assay 2 (SIF) (% @ Remaining 4 hours) [1]: B (25-75% of the tested compound remaining) | Assay 3 (% Remaining at 24 h) [2]: C (>75% of the tested compound remaining)

CCCC(=O)O[C@@H]1[C@@H](OC(=O)CCC)[C@H](C)O[C@H](OC(=O)CCc2c[nH]c3ccccc23)[C@@H]1OC(=O)CCC [Compound 86, (2R,3R,4R,5S,6S)-4,5-bis(butanoyloxy)-2-{[3-(1H-indol-3-yl)propanoyl]oxy}-6-methyloxan-3-yl butanoate]
Assay 3 (% Remaining at 24 h) [2]: A (<25% of the tested compound remaining) | Assay 1 (SGF) (% Remaining @ 1 hour) [3]: B (25-75% of the tested compound remaining)

CCCC(=O)O[C@@H]1[C@@H](OC(=O)CCC)[C@H](OC(=O)CCc2c[nH]c3ccccc23)OC[C@H]1OC(=O)CCC [Compound 97, (2S,3R,4S,5R)-4,5-bis(butanoyloxy)-2-{[3-(1H-indol-3-yl)propanoyl]oxy}oxan-3-yl butanoate]
Assay 3 (% Remaining at 24 h) [2]: A (<25% of the tested compound remaining) | Assay 1 (SGF) (% Remaining @ 1 hour) [3]: B (25-75% of the tested compound remaining)

CCCC(=O)Oc1ccc(N)cc1C(=O)O [Compound 16, 5-amino-2-butanoyloxy-benzoic acid]
Assay 2 (SIF) (% @ Remaining 4 hours) [1]: C (>75% of the tested compound remaining) | Assay 3 (% Remaining at 24 h) [2]: C (>75% of the tested compound remaining)

C[C@@H]1O[C@@H](OC(=O)CCc2c[nH]c3ccccc23)[C@@H](OC(=O)CCc2c[nH]c3ccccc23)[C@H](OC(=O)CCc2c[nH]c3ccccc23)[C@@H]1OC(=O)CCc1c[nH]c2ccccc12 [Compound 64, (2S,3S,4R,5R,6S)-3,4,5-tris({[3-(1H-indol-3-yl)propanoyl]oxy})-6-methyloxan-2-yl 3-(1H-indol-3-yl)propanoate]
Assay 2 (SIF) (% @ Remaining 4 hours) [1]: A (<25% of the tested compound remaining) | Assay 3 (% Remaining at 24 h) [2]: A (<25% of the tested compound remaining)

CCCC(=O)O[C@H]1[C@H](OC(=O)CCC)COC(O)[C@@H]1OC(=O)CCC (stereo partly drawn) [Compound 158, (3R,4S,5R)-4,5-bis(butanoyloxy)-2-hydroxyoxan-3-yl butanoate]
Assay 2 (SIF) (% @ Remaining 4 hours) [1]: A (<25% of the tested compound remaining) | Assay 3 (% Remaining at 24 h) [2]: A (<25% of the tested compound remaining)

CCCC(=O)O[C@@H]1[C@@H](OC(=O)CCC)[C@H](Oc2ccc(N)cc2C(=O)O)OC[C@H]1OC(=O)CCC [Compound 183, 5-amino-2-[(2S,3R,4S,5R)-3,4,5-tri(butanoyloxy)tetrahydropyran-2-yl]oxy-benzoic acid]
Assay 2 (SIF) (% @ Remaining 4 hours) [1]: B (25-75% of the tested compound remaining) | Assay 3 (% Remaining at 24 h) [2]: B (25-75% of the tested compound remaining)

CCCC(=O)O[C@@H]1[C@@H](OC(=O)CCC)[C@H](C)O[C@H](Oc2ccccc2C(=O)O)[C@@H]1OC(=O)CCC [Compound 38, 2-(((2R,3R,4R,5S,6S)-3,4,5-tris(butyryloxy)-6-methyltetrahydro-2H-pyran-2-yl)oxy)benzoic acid]
Assay 2 (SIF) (% @ Remaining 4 hours) [1]: C (>75% of the tested compound remaining) | Assay 3 (% Remaining at 24 h) [2]: C (>75% of the tested compound remaining)

CCCC(=O)O[C@@H]1[C@@H](OC(=O)CCC)[C@H](OC)OC[C@H]1OC(=O)CCC [Compound 88, (2R,3R,4S,5R)-4,5-bis(butanoyloxy)-2-methoxyoxan-3-yl butanoate]
Assay 2 (SIF) (% @ Remaining 4 hours) [1]: A (<25% of the tested compound remaining) | Assay 3 (% Remaining at 24 h) [2]: A (<25% of the tested compound remaining)

CCCC(=O)O[C@H]1[C@H](OC(=O)CCC)[C@H](Oc2ccccc2C(=O)O)O[C@@H](C)[C@H]1OC(=O)CCC [Compound 23, 2-(((2S,3S,4R,5R,6S)-3,4,5-tris(butyryloxy)-6-methyltetrahydro-2H-pyran-2-yl)oxy)benzoic acid]
Assay 2 (SIF) (% @ Remaining 4 hours) [1]: B (25-75% of the tested compound remaining) | Assay 3 (% Remaining at 24 h) [2]: C (>75% of the tested compound remaining)

CCCC(=O)OC[C@H]1O[C@@H](Oc2ccc(N)cc2C(=O)O)[C@H](OC(=O)CCC)[C@@H](OC(=O)CCC)[C@@H]1OC(=O)CCC [Compound 36, 5-amino-2-(((2S,3R,4S,5R,6R)-3,4,5-tris(butyryloxy)-6-((butyryloxy)methyl)tetrahydro-2H-pyran-2-yl)oxy)benzoic acid]
Assay 2 (SIF) (% @ Remaining 4 hours) [1]: C (>75% of the tested compound remaining) | Assay 3 (% Remaining at 24 h) [2]: C (>75% of the tested compound remaining)

O=C(CCc1c[nH]c2ccccc12)O[C@H]1OC[C@@H](OC(=O)CCc2c[nH]c3ccccc23)[C@@H](OC(=O)CCc2c[nH]c3ccccc23)[C@H]1OC(=O)CCc1c[nH]c2ccccc12 [Compound 150, (2R,3R,4R,5R)-3,4,5-tris({[3-(1H-indol-3-yl)propanoyl]oxy})oxan-2-yl 3-(1H-indol-3-yl)propanoate]
Assay 2 (SIF) (% @ Remaining 4 hours) [1]: A (<25% of the tested compound remaining) | Assay 3 (% Remaining at 24 h) [2]: A (<25% of the tested compound remaining)
